# Source: patent US20050222027A1, “Modulation of complement to treat pain” (Euro-Celtique S.A., priority 2003, published 2005)
# Entries after “also recorded” stand apart in the source; their conditions may differ.
# Tests used:
# C3 = test: Hemolysis assay measuring C3 activity in serum of rats given CVF; format: in vivo, rat
# Text: A variety of methods well-known in the art can be used to determine at least one activity of a complement component. As described in the Examples Section below, the hemolysis assay can be used to measure the activity of C3 in the serum from blood samples. In the hemolysis assay, erythrocytes are sensitized by coating these erythrocytes with antibodies against red blood cells. Next, the sensitized erythrocytes, C3-depleted serum, and a blood sample to be tested for C3 activity are combined and incubated. During incubation, the complement pathway proceeds on the surface of the erythorcytes using complement components from the C3-depleted serum and C3 from the blood sample. This pathway can result in the formation of a sufficient number of MAC pores to induce erythorcyte lysis and hemoglobin release. The optical density at 540 run is then measured to determine the quantity of free hemoglobin in solution as a result of erythrocyte lysis. Since erythrocyte lysis is a result of complement activation and the presence of C3, the optical density at 540 nm is a measure of the activity of C3 in the blood sample.
# To determine the effect of CVF on complement C3 activity, naïve animals were injected with CVF on days 0, 3, and 6. C3 activity was measured using the hemolysis assay before and after CVF injections as described below.
# The timeline for the general method of surgery followed by CVF injection is outlined in FIG. 8. Spinal nerve ligation (SNL) was performed on Sprague-Dawley rats as described above in Example 1. On day 0, SNL surgery was performed on 20 rats and sham surgery was performed on 20 rats. At days 23 and 26 post surgery, 10 SNL and 10 sham animals (designated herein as SNL-CVF and Sham-CVF, respectively) were injected (ip) with CVF (350 units/kg). In addition, as controls, 10 SNL and 10 sham animals (designated herein as SNL-saline and Sham-saline, respectively) were given saline injections (ip). Five animals from each group were terminated on day 29. The remaining five animals were terminated on day 39. Pain behavior was measured using the paw pressure test as described in Example 1 above. C3 activity was measured by the hemolysis assay before and after animals received CVF as described below.
# The sensitization of sheep erythrocytes and the hemolysis assay to measure C3 activity were performed according to the Quidel Technical Bulletin entitled Measurement of C3 function in non-primate sera by hemolytic assay (Quidel Corporation, Santa Clara, Calif.). References within this protocol are the following: DeSautel and Brode, Laryngoscope 1999, 109:1674-8; Kirshfink, The Complement System 1998, Rother and Till eds, Springer Verlag Berlin Heidelberg, 522-547; Mollnes, Complement and Complement Receptors 1997, Weir ed, 78.1-78.6; Porcel et al., J. Immunol Method. […]
# [1] = test system: spinal nerve ligation (SNL) model of neuropathic pain; test: Paw pressure test (paw withdrawal threshold) in the SNL model of neuropathic pain; format: in vivo, rat
# Text: Rats having the L5-L6 spinal nerves ligated (SNL) according to the method of Kim and Chung, Pain 1992; 50:355-63 were used in this experiment. Briefly, nerve injury was induced by tight ligation of the left L5 and L6 spinal nerves, producing symptoms of neuropathic pain as described below. The advantage of this model is that it allows the investigation of dorsal root ganglia that are injured (L5 and L6) versus dorsal root ganglia that are not injured (L4). Thus, it is possible to see changes in gene expression specifically in response to nerve injury.
# Surgery was performed under isoflurane/O2 inhalation anesthesia. Following induction of anesthesia, a 3 cm incision was made just lateral to the spinal vertebrae. The left paraspinal muscles were separated from the spinous process at the L4-S2 levels. The L6 transverse process was carefully removed with a pair of small rongeurs to visually identify the L4-L6 spinal nerves. The left L5 and L6 spinal nerves were isolated and tightly ligated with 7-0 silk suture. A complete hemostasis was confirmed, and the wound was sutured using […] sutures, such as 4-0 Vicryl.
# Mechanical sensitivity was assessed using the paw pressure test. This test measures mechanical hyperalgesia. Hind paw withdrawal thresholds (“PWT”) (measured in grams) in response to a noxious mechanical stimulus were determined using an analgesymeter (Model 7200, commercially available from Ugo Basile of Italy), as described in Stein, Biochemistry & Behavior 1988; 31: 451-455. […] PWT was determined once for each rat at each time point, and only the injured ipsilateral paw (i.e., the hind paw on the same side of the animal as the ligation in SNL animals, or the side of the animal where the nerve was exposed but not injured in sham-operated animals) was used in the test. […]
# The timeline for the general method of surgery followed by CVF injection is outlined in FIG. 8. […] Pain behavior was measured using the paw pressure test as described in Example 1 above. C3 activity was measured by the hemolysis assay before and after animals received CVF as described below.
substance,measurement,setting,value
CVF,C3 complement activity levels on day 39,"C3; CVF 350 units/kg ip on days 23 and 26 post surgery, day 39, FIG. 10C",returned to pre-surgery and day 23 levels
same,C3 activity levels relative to pre-surgery and day 23,"C3; CVF treated animals (350 units/kg ip on days 23 and 26 post surgery), days 28 and 29, FIG. 10B",below 20%
same,C3 activity (hemolysis assay) after CVF treatment,"C3; SNL and sham surgery rats injected with CVF or saline, FIGS. 10B and 10C",C3 activity decreases after CVF treatment in both SNL and sham surgery animals
same,"C3 activity (hemolysis assay, optical density at 540 nm) after CVF treatment","C3; naïve rats, CVF given on days 0, 3 and 6, measured at 0, 3, 6, 7, 8 and 12 days, FIG. 10A",return to pre-dosing levels by day 8; also recorded: C3 activity decreases
same,Pain tolerance (withdrawal threshold to a mechanical stimulus) versus SNL animals injected with saline,[1]; SNL rats treated with CVF compared to SNL saline control,chronic pain is alleviated; also recorded: higher pain tolerance
same,Pain behavior (paw withdrawal threshold) of SNL-CVF animals by day 29,"[1]; SNL rats, CVF 350 units/kg ip on days 23 and 26 post surgery, day 29, FIG. 9",not significantly different than Sham-saline or Sham-CVF animals
same,Pain behavior (paw withdrawal threshold) of SNL-CVF animals by day 31,"[1]; SNL rats, CVF 350 units/kg ip on days 23 and 26 post surgery, day 31, FIG. 9",returned to day 23 levels
